Reference: article PMC4849045, “Hepatoprotective Limonoids from Andiroba (Carapa guianensis)” (International Journal of Molecular Sciences, 2016)
Read-outs that look alike come from different tables or passages of the source.

Columns and labels:
[1] = system: primary cultured mouse hepatocytes; conditions: cited from earlier work; for Inhibition (%) of D-GalN-induced cytotoxicity: mean ± S.E.M. (n = 4)
[2] = system: D-GalN/LPS-induced liver injury in mice; design: method as in PMID 24697904; conditions: p.o., cited from earlier work; for Mortality: dead/total; for sALT / sAST: mean ± S.E.M.
[3] = system: L929 cells; design: method as in PMID 24697904; conditions: cited from earlier work; for Inhibition (%) of TNF-α-induced cytotoxicity: mean ± S.E.M. (n = 4)
[4] = system: D-GalN/LPS-induced liver injury in mice; assay: D-GalN/LPS-induced liver injury in mice; format: in vivo, mouse; conditions: p.o.; for Mortality: dead/total; for sALT / sAST: mean ± S.E.M.
Protocol: Male ddY mice (Kiwa Laboratory Animal Co., Ltd., Wakayama, Japan) were housed at a constant temperature of 23 ± 2°C and were fed a standard laboratory chow (MF, Oriental Yeast Co., Ltd., Tokyo, Japan). The animals were fasted for 24 h prior to the beginning of the experiment but were allowed free access to tap water. All experiments were performed with conscious mice unless otherwise noted. The experimental protocol was approved by the Experimental Animal Research Committee of Kindai University (KAPR-26-001, 1 April 2014).
The method described by Tiegs et al. was modified and used for this study. Curcumin [36] and silybin were used as reference compounds.

[5] = system: L929 cells; assay: TNF-α-induced cytotoxicity in L929 cells (MTT assay); format: cell-based; conditions: Mus musculus; for inhibition at 1 µM / inhibition at 3 µM / inhibition at 10 µM / inhibition at 30 µM: read-out: Inhibition (%) of TNF-α-induced cytotoxicity
Protocol: The effects of the limonoids (1–17) on the sensitivity of hepatocytes to TNF-α were assessed by measuring TNF-α-induced decreases in the viability of L929 cells, a TNF-α-sensitive cell line, by using the MTT assay. In the absence of a test sample, the cells incubated with 1 ng/mL TNF-α for 44 h were compared with those not incubated with TNF-α.
Assay for the TNF-α-induced cytotoxicity in L929 cells was performed as described previously. Silybin was used as a reference compound [36].

[6] = system: mouse peritoneal macrophages; conditions: mean ± S.E.M. (n = 4), cited from earlier work
[7] = system: LPS-activated NO production in mouse peritoneal macrophages; conditions: cited from earlier work; for Inhibition (%) of LPS-activated NO production: mean ± S.E.M. (n = 4); for IC50: mouse peritoneal macrophages, read-out: IC50, inhibition of LPS-activated NO production
[8] = system: primary cultured mouse hepatocytes; assay: D-GalN-induced cytotoxicity in primary cultured mouse hepatocytes (MTT assay); conditions: Hepatocyte, read-out: Inhibition (%) of D-GalN-induced cytotoxicity
Protocol: Assay for the D-GalN-induced cytotoxicity in primary cultured mouse hepatocytes was performed as described previously [33, 35, 36].

[9] = L929, 1 µM, 1 ng/mL TNF-α, 44 h, mean ± S.E.M. (n = 4)
[10] = L929, 3 µM, 1 ng/mL TNF-α, 44 h, mean ± S.E.M. (n = 4)
[11] = L929, 10 µM, 1 ng/mL TNF-α, 44 h, mean ± S.E.M. (n = 4)
[12] = L929, 30 µM, 1 ng/mL TNF-α, 44 h, mean ± S.E.M. (n = 4)
[13] = 100 µM, # = cytotoxic effects were observed

COc1cc(/C=C/C(=O)CC(=O)/C=C/c2ccc(O)c(OC)c2)ccc1O [Curcumin, curcumin]
Inhibition (%) of D-GalN-induced cytotoxicity ([1]; 3 µM): 0.1 ± 3.8%
Inhibition (%) of D-GalN-induced cytotoxicity ([1]; 10 µM): 1.1 ± 2.2%
Inhibition (%) of D-GalN-induced cytotoxicity ([1]; 30 µM): −17.7 ± 1.3%
Inhibition (%) of D-GalN-induced cytotoxicity ([1]; 100 µM): −44.3 ± 0.3%
Reduction of D-GalN-induced cytotoxicity (in words) ([1]; concentrations of up to 100 μM): did not reduce D-GalN-induced cytotoxicity
sALT Inhibition (%) ([2]; 12.5 mg/kg): 24.0%
sAST Inhibition (%) ([2]; 12.5 mg/kg): 21.1%
Mortality ([2]; 12.5 mg/kg): 0/10
sALT ([2]; 12.5 mg/kg): 5024 ± 1189 Karmen Unit
sAST ([2]; 12.5 mg/kg): 4770 ± 1218 Karmen Unit
sALT Inhibition (%) ([2]; 25 mg/kg): 50.9%
sAST Inhibition (%) ([2]; 25 mg/kg): 47.8%
Mortality ([2]; 25 mg/kg): 0/10
sALT ([2]; 25 mg/kg): 3253 ± 981 Karmen Unit
sAST ([2]; 25 mg/kg): 3177 ± 979 Karmen Unit
sALT Inhibition (%) ([2]; 50 mg/kg): 71.2%
sAST Inhibition (%) ([2]; 50 mg/kg): 63.8%
Mortality ([2]; 50 mg/kg): 1/10
sALT ([2]; 50 mg/kg): 1916 ± 483 Karmen Unit
sAST ([2]; 50 mg/kg): 2220 ± 563 Karmen Unit

COc1cc(C2Oc3cc([C@H]4Oc5cc(O)cc(O)c5C(=O)[C@@H]4O)ccc3OC2CO)ccc1O (stereo partly drawn) [Silybin, silybin]
Inhibition (%) of TNF-α-induced cytotoxicity ([3]; 3 µM): 5.3 ± 2.8%
Inhibition (%) of TNF-α-induced cytotoxicity ([3]; 10 µM): 22.0 ± 3.8 %
Inhibition (%) of TNF-α-induced cytotoxicity ([3]; 30 µM): 48.0 ± 4.1 %
Inhibition (%) of TNF-α-induced cytotoxicity ([3]; 100 µM): 50.8 ± 3.9 %
IC50 ([3]; L929 cells, read-out: IC50, inhibition of TNF-α-induced decrease in cell viability): 37.2 µM
Inhibition (%) of D-GalN-induced cytotoxicity ([1]; 3 µM): 4.8 ± 1.1%
Inhibition (%) of D-GalN-induced cytotoxicity ([1]; 10 µM): 7.7 ± 0.7%
Inhibition (%) of D-GalN-induced cytotoxicity ([1]; 30 µM): 45.2 ± 8.8 %
Inhibition (%) of D-GalN-induced cytotoxicity ([1]; 100 µM): 77.0 ± 5.5 %
IC50 ([1]; primary mouse hepatocytes, read-out: IC50, inhibition of D-GalN-induced cytotoxicity): 38.8 µM
sALT Inhibition (%) ([4]; 500 mg/kg): 71.9%
sAST Inhibition (%) ([4]; 500 mg/kg): 71.1%
Mortality ([4]; 500 mg/kg): 0/8
sALT ([4]; 500 mg/kg): 1990 ± 439 Karmen Unit
sAST ([4]; 500 mg/kg): 1361 ± 191 Karmen Unit

CC(=O)O[C@@H]1C[C@H]2C(C)(C)C(=O)C=C[C@]2(C)[C@H]2CC[C@@]3(C)[C@H](c4ccoc4)OC(=O)[C@H]4O[C@]43[C@@]21C [compound 1, gedunin]
inhibition at 1 µM [5, 9]: 4.5 ± 1.9%
inhibition at 3 µM [5, 10]: 21.8 ± 3.7%
inhibition at 10 µM [5, 11]: 38.1 ± 3.8%
inhibition at 30 µM [5, 12]: 36.5 ± 4.1%
cell viability (%) in MTT assay (values in parentheses) ([6]; 3 µM): 102.2 ± 5.3%
cell viability (%) in MTT assay (values in parentheses) ([6]; 10 µM): 119.5 ± 5.3%
cell viability (%) in MTT assay (values in parentheses) ([6]; 30 µM): 94.8 ± 1.4%
cell viability (%) in MTT assay (values in parentheses) [6, 13]: 3.0 ± 0.4%
Inhibition (%) of LPS-activated NO production ([7]; 3 µM): 25.1 ± 2.5%
Inhibition (%) of LPS-activated NO production ([7]; 10 µM): 84.5 ± 2.3%
Inhibition (%) of LPS-activated NO production ([7]; 30 µM): 101.8 ± 0.6%
Inhibition (%) of LPS-activated NO production ([7]; 100 µM): 100.9 ± 0.4%
IC50 [7]: 4.6 µM
inhibition at 3 µM [8]: -8.4 ± 1.9%
inhibition at 10 µM [8]: -3.9 ± 0.4%
inhibition at 30 µM [8]: -3.2 ± 0.9%
inhibition at 100 µM [8]: -5.2 ± 0.2%
sALT Inhibition (%) ([4]; 25 mg/kg): 65.7%
sAST Inhibition (%) ([4]; 25 mg/kg): 56.2%
Mortality ([4]; 25 mg/kg): 0/7
sALT ([4]; 25 mg/kg): 2950 ± 710 Karmen Unit
sAST ([4]; 25 mg/kg): 2304 ± 651 Karmen Unit
sALT Inhibition (%) ([4]; 50 mg/kg): 67.2%
sAST Inhibition (%) ([4]; 50 mg/kg): 63.5%
Mortality ([4]; 50 mg/kg): 0/7
sALT ([4]; 50 mg/kg): 2824 ± 754 Karmen Unit
sAST ([4]; 50 mg/kg): 1923 ± 576 Karmen Unit

CC(=O)O[C@@H]1C2C(C)(C)C(=O)C=C[C@]2(C)C2CC[C@@]3(C)[C@H](c4ccoc4)OC(=O)[C@H]4O[C@]43[C@]2(C)[C@@H]1OC(C)=O (stereo partly drawn) [compound 2, 6α-acetoxygedunin]
inhibition at 1 µM [5, 9]: 10.9 ± 1%
inhibition at 3 µM [5, 10]: 23.2 ± 1.8%
inhibition at 10 µM [5, 11]: 36.3 ± 2.1%
inhibition at 30 µM [5, 12]: 37.3 ± 1.4%
cell viability (%) in MTT assay (values in parentheses) ([6]; 3 µM): 96.8 ± 1.2%
cell viability (%) in MTT assay (values in parentheses) ([6]; 10 µM): 102.3 ± 2.2%
cell viability (%) in MTT assay (values in parentheses) ([6]; 30 µM): 92.5 ± 1.7%
cell viability (%) in MTT assay (values in parentheses) [6, 13]: 53.6 ± 5.1%
Inhibition (%) of LPS-activated NO production ([7]; 3 µM): 16.9 ± 1.7%
Inhibition (%) of LPS-activated NO production ([7]; 10 µM): 67.6 ± 4.6%
Inhibition (%) of LPS-activated NO production ([7]; 30 µM): 88.4 ± 3.5%
Inhibition (%) of LPS-activated NO production ([7]; 100 µM): 99.6 ± 0.2%
IC50 [7]: 7.9 µM
inhibition at 3 µM [8]: -2.6 ± 1%
inhibition at 10 µM [8]: -1.9 ± 0.3%
inhibition at 30 µM [8]: -2.5 ± 0.7%
inhibition at 100 µM [8]: -1.8 ± 0.6%
sALT Inhibition (%) ([4]; 25 mg/kg): 63.7%
sAST Inhibition (%) ([4]; 25 mg/kg): 54.7%
Mortality ([4]; 25 mg/kg): 0/7
sALT ([4]; 25 mg/kg): 3120 ± 830 Karmen Unit
sAST ([4]; 25 mg/kg): 2384 ± 579 Karmen Unit
sALT Inhibition (%) ([4]; 50 mg/kg): 72.2%
sAST Inhibition (%) ([4]; 50 mg/kg): 67.9%
Mortality ([4]; 50 mg/kg): 0/7
sALT ([4]; 50 mg/kg): 2397 ± 873 Karmen Unit
sAST ([4]; 50 mg/kg): 1696 ± 580 Karmen Unit

CC1(C)C(=O)C=C[C@@]2(C)C1CC(=O)[C@]1(C)C2CC[C@@]2(C)[C@H](c3ccoc3)OC(=O)[C@H]3O[C@]321 (stereo partly drawn) [compound 3, 7-deacetoxy-7-oxogedunin]
IC50 ([5]; L929, 44 h, read-out: IC50, inhibition of TNF-α-induced decrease in cell viability): 7.3 µM
inhibition at 1 µM ([5]; L929, 44 h): 5.8 ± 1.5%
inhibition at 3 µM ([5]; L929, 44 h): 26.7 ± 4.5%
inhibition at 10 µM ([5]; L929, 44 h): 58.6 ± 7.2%
inhibition at 30 µM ([5]; L929, 44 h): 68.7 ± 4.8%
cell viability (%) in MTT assay (values in parentheses) ([6]; 3 µM): 100.3 ± 3.9%
cell viability (%) in MTT assay (values in parentheses) ([6]; 10 µM): 98.9 ± 3.2%
cell viability (%) in MTT assay (values in parentheses) ([6]; 30 µM): 98.8 ± 7.4%
cell viability (%) in MTT assay (values in parentheses) [6, 13]: 83.7 ± 1.2%
Inhibition (%) of LPS-activated NO production ([7]; 3 µM): 7.4 ± 5.2%
Inhibition (%) of LPS-activated NO production ([7]; 10 µM): 40.9 ± 4.7%
Inhibition (%) of LPS-activated NO production ([7]; 30 µM): 94.0 ± 0.8%
Inhibition (%) of LPS-activated NO production ([7]; 100 µM): 88.1 ± 2.1%
IC50 [7]: 12.8 µM
inhibition at 3 µM [8]: -4.6 ± 0.5%
inhibition at 10 µM [8]: -8.2 ± 0.9%
inhibition at 30 µM [8]: -8.3 ± 1.1%
inhibition at 100 µM [8]: -8.9 ± 0.6%
sALT Inhibition (%) ([4]; 25 mg/kg): 66.3%
sAST Inhibition (%) ([4]; 25 mg/kg): 60.3%
Mortality ([4]; 25 mg/kg): 0/7
sALT ([4]; 25 mg/kg): 2899 ± 1024 Karmen Unit
sAST ([4]; 25 mg/kg): 2093 ± 742 Karmen Unit
sALT Inhibition (%) ([4]; 50 mg/kg): 70.2%
sAST Inhibition (%) ([4]; 50 mg/kg): 66.7%
Mortality ([4]; 50 mg/kg): 1/7
sALT ([4]; 50 mg/kg): 2572 ± 903 Karmen Unit
sAST ([4]; 50 mg/kg): 1759 ± 579 Karmen Unit
